Measured values reported in patent US9353051B2, “Antiviral drugs for treatment or prevention of dengue infection” (Siga Technologies Inc., priority 2007, dated 2016).

Tested on: Dengue-2 (Strain New Guinea C)
Test: viral yield assay against Dengue-2 in Vero cells
Type: cell-based
Settings: Dengue virus; Vero cells, MOI 0.1, harvested 48 hours post infection; read-out: Activity (anti-dengue 2 viral activity, EC50)
In short: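 Vero cells infected with dengue-2 at MOI 0.1 were treated with compound (DMSO control) at 37° C., harvested 48 h post infection and titered on Vero cells.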

SMILES | EC50 [µM]
CN(C)S(=O)(=O)c1cccc(COC(=O)Cn2cnc3ccccc3c2=O)c1 [Compound 128, (4-Oxo-4H-quinazolin-3-yl)-acetic acid 3-dimethylsulfamoyl-benzyl ester] | > 25
CCN(CC)S(=O)(=O)c1ccc2c(c1)CCN2Cc1nc2ccccc2c(=O)n1C [Compound 96, 1-(3-Methyl-4-oxo-3,4-dihydro-quinazolin-2-ylmethyl)-2,3-dihydro-1H-indole-5-sulfonic acid diethylamide] | > 25
NS(=O)(=O)c1ccc(NC(=O)Cn2cnc3cc([N+](=O)[O-])ccc3c2=O)cc1 [Compound 110, 2-(7-Nitro-4-oxo-4H-quinazolin-3-yl)-N-(4-sulfamoyl-phenyl)-acetamide] | > 25
O=C(Cn1cnc2ccccc2c1=O)Nc1ccc(S(=O)(=O)Nc2nccs2)cc1 [Compound 32, 2-(4-Oxo-4H-quinazolin-3-yl)-N-[4-(thiazol-2-ylsulfamoyl)-phenyl]-acetamide] | > 25
CC(C)N(C)S(=O)(=O)c1ccc(NC(=O)Cn2cnc3ccccc3c2=O)cc1 [Compound 42, N-[4-(Isopropyl-methyl-sulfamoyl)-phenyl]-2-(4-oxo-4H-quinazolin-3-yl)-acetamide] | > 25
CN1CCN(S(=O)(=O)c2ccc(NC(=O)Cn3cnc4ccccc4c3=O)cc2)CC1 [Compound 45, N-[4-(4-Methyl-piperazine-1-sulfonyl)-phenyl]-2-(4-oxo-4H-quinazolin-3-yl)-acetamide] | > 25
CCN(CC)S(=O)(=O)c1cccc(NC(=O)Cn2cnc3ccccc3c2=O)c1 [Compound 65, N-(3-Diethylsulfamoyl-phenyl)-2-(4-oxo-4H-quinazolin-3-yl)-acetamide] | > 25
CCN(CC)S(=O)(=O)c1ccc(O)c(NC(=O)Cn2nnc3ccccc3c2=O)c1 [Compound 94, N-(5-Diethylsulfamoyl-2-hydroxy-phenyl)-2-(4-oxo-4H-benzo[d][1,2,3]triazin-3-yl)-acetamide] | > 25
O=C(COC(=O)Cn1cnc2ccccc2c1=O)Nc1ccc(S(=O)(=O)N2CCCC2)cc1 [Compound 124, (4-Oxo-4H-quinazolin-3-yl)-acetic acid [4-(pyrrolidine-1-sulfonyl)-phenylcarbamoyl]-methyl ester] | > 25
COc1ccc(S(=O)(=O)N(C)C)cc1NC(=O)COC(=O)Cn1cnc2ccccc2c1=O [Compound 125, (4-Oxo-4H-quinazolin-3-yl)-acetic acid (5-dimethylsulfamoyl-2-methoxy-phenylcarbamoyl)-methyl ester] | > 25
CC(=O)NCCc1ccc(S(=O)(=O)Nc2ccc3ncn(Cc4ccccc4)c(=O)c3c2)cc1 [Compound 104, N-{2-[4-(3-Benzyl-4-oxo-3,4-dihydro-quinazolin-6-ylsulfamoyl)-phenyl]-ethyl}-acetamide] | > 25
O=C(Cn1cnc2ccc([N+](=O)[O-])cc2c1=O)Nc1ccc(S(=O)(=O)N2CCOCC2)cc1 [Compound 135, N-[4-(Morpholine-4-sulfonyl)-phenyl]-2-(6-nitro-4-oxo-4H-quinazolin-3-yl)-acetamide] | > 25
CCN(CC(=O)NCCc1ccc(S(N)(=O)=O)cc1)Cc1nc2ccccc2c(=O)[nH]1 [Compound 114, 2-[Ethyl-(4-oxo-3,4-dihydro-quinazolin-2-ylmethyl)-arnino]-N-[2-(4-sulfamoyl-phenyl)-ethyl]-acetamide] | > 25
CCN(CC)S(=O)(=O)c1ccc(Cl)c(NC(=O)Cn2cnc3ccccc3c2=O)c1 [Compound 93, N-(2-Chloro-5-diethylsulfamoyl-phenyl)-2-(4-oxo-4H-quinazolin-3-yl)-acetamide] | > 25
O=C(Cn1cnc2ccccc2c1=O)Nc1ccc(S(=O)(=O)NCCCN2CCOCC2)cc1 [Compound 40, N-[4-(3-Morpholin-4-yl-propylsulfamoyl)-phenyl]-2-(4-oxo-4H-quinazolin-3-yl)-acetamide] | > 25
O=C(Cn1cnc2ccccc2c1=O)Nc1ccc(S(=O)(=O)N2CCOCC2)cc1 [Compound 34, N-[4-(Morpholine-4-sulfonyl)-phenyl]-2-(4-oxo-4H-quinazolin-3-yl)-acetamide] | > 25
CCN(CC)S(=O)(=O)c1ccc(C)c(NC(=O)Cn2nnc3ccccc3c2=O)c1 [Compound 95, N-(5-Diethylsulfamoyl-2-methyl-phenyl)-2-(4-oxo-4H-benzo[d][1,2,3]triazin-3-yl)-acetamide] | > 25
CCN(CC)S(=O)(=O)c1ccc(NC(=O)Cn2cnc3cc(-c4ccc(OC)cc4)sc3c2=O)cc1 [Compound 61, N-(4-Diethylsulfamoyl-phenyl)-2-[6-(4-methoxy-phenyl)-4-oxo-4H-thieno[3,2-d]pyrimidin-3-yl]-acetamide] | > 25
CC(C)NS(=O)(=O)c1ccc(NC(=O)C(C)N(C)Cc2nc3ccccc3c(=O)[nH]2)cc1 (centres unmarked) [Compound 133, N-(4-Isopropylsulfamoyl-phenyl)-2-[methyl-(4-oxo-3,4-dihydro-quinazolin-2-ylmethyl)-amino]-propionamide] | > 25
CCCCN(C)S(=O)(=O)c1ccc(NC(=O)Cn2cnc3ccccc3c2=O)cc1 [Compound 35, N-[4-(Butyl-methyl-sulfamoyl)-phenyl]-2-(4-oxo-4H-quinazolin-3-yl)-acetamide] | > 25

SMILES | EC50 [µM]
NS(=O)(=O)c1cccc(NC(=O)Cn2nnc3ccccc3c2=O)c1 [Compound 131, 2-(4-Oxo-4H-benzo[d][1,2,3]triazin-3-yl)-N-(3-sulfamoyl-phenyl)-acetamide] | > 25
CCN(CC)C(=O)c1ccc(NCC(=O)Nc2ccc(S(=O)(=O)N(CC)CC)cc2)cc1 [Compound 76, 4-{[(4-Diethylsulfamoyl-phenylcarbamoyl)-methyl]-amino}-N,N-diethyl-benzamide] | > 25
CCN(CC)S(=O)(=O)c1ccc(NC(=O)CNC(=O)c2ccc(C)cc2)cc1 [Compound 72, N-[(4-Diethylsulfamoyl-phenylcarbamoyl)-methyl]-4-methyl-benzamide] | > 25
NS(=O)(=O)c1ccc(NC(=O)COC(=O)CCc2nc3ccccc3c(=O)[nH]2)cc1 [Compound 116, 3-(4-Oxo-3,4-dihydro-quinazolin-2-yl)-propionic acid (4-sulfamoyl-phenylcarbamoyl)-methyl ester] | > 25
CC(C)N(C)S(=O)(=O)c1ccc(NC(=O)Cn2nnc3ccccc3c2=O)cc1 [Compound 86, N-[4-(Isopropyl-methyl-sulfamoyl)-phenyl]-2-(4-oxo-4H-benzo[d][1,2,3]triazin-3-yl)-acetamide] | > 25
Cc1nn(CC(=O)Nc2ccc(S(N)(=O)=O)cc2)c(=O)c2ccccc12 [Compound 100, 2-(4-Methyl-1-oxo-1H-phthalazin-2-yl)-N-(4-sulfamoyl-phenyl)-acetamide] | > 25
CCN(CC)S(=O)(=O)c1ccc(NC(=O)COC(=O)Cn2nnc3ccccc3c2=O)cc1 [Compound 81, (4-Oxo-4H-benzo[d][1,2,3]triazin-3-yl)-acetic acid (4-diethylsulfamoyl-phenylcarbamoyl)-methyl ester] | > 25
CC(=O)NCCc1ccc(S(=O)(=O)Nc2ccc3ncn(C)c(=O)c3c2)cc1 [Compound 103, N-{2-[4-(3-Methyl-4-oxo-3,4-dihydro-quinazolin-6-ylsulfamoyl)-phenyl]-ethyl}-acetamide] | > 25
CCN(CC)S(=O)(=O)c1ccc(NC(=O)CSc2nc3ccccc3c(=O)n2CC)cc1 [Compound 64, N-(4-Diethylsulfamoyl-phenyl)-2-(3-ethyl-4-oxo-3,4-dihydro-quinazolin-2-ylsulfanyl)-acetamide] | > 25
O=C(Cn1nnc2ccccc2c1=O)Nc1ccc(S(=O)(=O)N2CCCCC2)cc1 [Compound 87, 2-(4-Oxo-4H-benzo[d][1,2,3]triazin-3-yl)-N-[4-(piperidine-1-sulfonyl)-phenyl]-acetamide] | > 25
O=C(Cn1nnc2ccccc2c1=O)Nc1ccc(S(=O)(=O)N2CCCC2)cc1 [Compound 113, 2-(4-Oxo-4H-benzo[d][1,2,3]triazin-3-yl)-N-[4-(pyrrolidine-1-sulfonyl)-phenyl]-acetamide] | > 25
CCN(CC)S(=O)(=O)c1ccc(NC(=O)CNC(=O)c2ccc(S(=O)(=O)NC(C)C)cc2)cc1 [Compound 73, N-[(4-Diethylsulfamoyl-phenylcarbamoyl)-methyl]-4-isopropylsulfamoyl-benzamide] | > 25
CCN(CC)S(=O)(=O)c1ccc(NC(=O)CNC(=O)c2ccc(-c3ccccc3)cc2)cc1 [Compound 80, Biphenyl-4-carboxylic acid [(4-diethylsulfamoyl-phenylcarbamoyl)-methyl]-amide] | > 25
CCN(CC)S(=O)(=O)c1ccc(N(C)C)c(NC(=O)Cn2cnc3ccccc3c2=O)c1 [Compound 88, N-(5-Diethylsulfamoyl-2-dimethylamino-phenyl)-2-(4-oxo-4H-quinazolin-3-yl)-acetamide] | > 25
CC1CCCCN1S(=O)(=O)c1ccc(NC(=O)Cn2cnc3ccccc3c2=O)cc1 (centres unmarked) [Compound 37, N-[4-(2-Methyl-piperidine-1-sulfonyl)-phenyl]-2-(4-oxo-4H-quinazolin-3-yl)-acetamide] | > 25
NS(=O)(=O)c1ccc(NC(=O)Cn2c(=O)cnc3ccccc32)cc1 [Compound 119, 2-(2-Oxo-2H-quinoxalin-1-yl)-N-(4-sulfamoyl-phenyl)-acetamide] | > 25
CCc1cc2c(=O)n(CC(=O)Nc3ccc(S(=O)(=O)N(CC)CC)cc3)cnc2s1 [Compound 11, N-(4-Diethylsulfamoyl-phenyl)-2-(6-ethyl-4-oxo-4H-thieno[2,3-d]pyrimidin-3-yl)-acetamide] | 1 to 10
O=C(Cn1cnc2ccccc2c1=O)Nc1ccc(S(=O)(=O)O)cc1 [Compound 127, 4-[2-(4-Oxo-4H-quinazolin-3-yl)-acetylamino]-benzenesulfonic acid] | > 25
CCN(CC)S(=O)(=O)c1ccc(OC)c(NC(=O)Cn2cnc3ccccc3c2=O)c1 [Compound 91, N-(5-Diethylsulfamoyl-2-methoxy-phenyl)-2-(4-oxo-4H-quinazolin-3-yl)-acetamide] | > 25

Same assay, conditions: Dengue virus; viral yield assay, Vero cells; read-out: EC50 Yield Den-2

SMILES | EC50 [µM]
CCc1cc2c(=O)n(CC(=O)Nc3ccc(S(=O)(=O)N(CC)CC)cc3)cnc2s1 [Compound 11, N-(4-Diethylsulfamoyl-phenyl)-2-(6-ethyl-4-oxo-4H-thieno[2,3-d]pyrimidin-3-yl)-acetamide] | 4.9

Same assay, conditions: Dengue virus; viral yield assay, Vero cells; read-out: EC90 Yield Den-2

SMILES | EC90 [µM]
CCc1cc2c(=O)n(CC(=O)Nc3ccc(S(=O)(=O)N(CC)CC)cc3)cnc2s1 [Compound 11, N-(4-Diethylsulfamoyl-phenyl)-2-(6-ethyl-4-oxo-4H-thieno[2,3-d]pyrimidin-3-yl)-acetamide] | > 50
